Test results: PMC8915600, “Optimization of experimental conditions for skin-PAMPA measurements” (ADMET & DMPK, 2020)
Read-outs that look alike come from different tables or passages of the source. Marks after values point to notes of the source that are not given here.

Key:
[1] = cited from earlier work
[2] = skin-PAMPA permeability assay (gradient-pH, UPLC-DAD); conditions: for Papp at 4 h, 50 μM / Papp at 30 min, 50 μM / Papp at 24 h, 50 μM: PAMPA
[3] = cited from earlier work; remark: listed apart in the source
[4] = parameters: method as in earlier work; conditions: octanol-water partition coefficient; cited from earlier work
[5] = skin-PAMPA membrane stability after pre-treatment at basic pH; conditions: membrane soaked at pH 7, 8, 9, 10 for 30 min or 4 h; then assay 4 h with stirring, donor pH 5, acceptor pH 7.4; versus untreated membrane
Procedure: Then, a standard permeation assay was carried out with an incubation time of 4 h and stirring at pH 5 in the donor compartment and pH 7.4 in the acceptor compartment. Simultaneously, permeation assays were also performed without the previous soaking treatment at basic pH.

[6] = PAMPA
in vitro = conditions: PAMPA, pH 7.4, log Pe
[7] = logarithm of human skin permeation coefficient, neutral form, corrected for ionization in water and for temperature at 37 °C
[8] = optimized assay conditions (4 h incubation, stirring), measured at the pH corresponding to the neutral form, acceptor pH 7.4
[9] = pH 7.4, log Pe, optimized assay conditions (4 h incubation, stirring), measured at the pH corresponding to the neutral form, acceptor pH 7.4
[10] = log Pe, with stirring, 4 h incubation, neutral form (donor pH 3.0, aminopyrine pH 7.0), acceptor pH 7.4, 32 °C
[11] = log Pe, without stirring, 30 min incubation, neutral form (donor pH 3.0, aminopyrine pH 7.0), acceptor pH 7.4, 32 °C
[12] = log Pe, without stirring, 4 h incubation, neutral form (donor pH 3.0, aminopyrine pH 7.0), acceptor pH 7.4, 32 °C
[13] = mole fraction, with stirring, 30 min incubation, neutral form
[14] = mole fraction, with stirring, 4 h incubation, neutral form
[15] = mole fraction, with stirring, 24 h incubation, neutral form
[16] = mole fraction, without stirring, 30 min incubation, neutral form
[17] = mole fraction, without stirring, 4 h incubation, neutral form
[18] = mole fraction, without stirring, 24 h incubation, neutral form
[19] = with stirring, 30 min incubation, neutral form (donor pH 3.0, aminopyrine pH 7.0), acceptor pH 7.4, 32 °C
[20] = log Pe, with stirring, 24 h incubation, neutral form (donor pH 3.0, aminopyrine pH 7.0), acceptor pH 7.4, 32 °C
[21] = log Pe, without stirring, 24 h incubation, neutral form (donor pH 3.0, aminopyrine pH 7.0), acceptor pH 7.4, 32 °C
[22] = without stirring, 4 h incubation, neutral form (donor pH 3.0, aminopyrine pH 7.0), acceptor pH 7.4, 32 °C

Nc1ccccc1N [o-Phenylenediamine]
log Kp [1, 7]: -6.70 cm/s
log Pe [2, 8]: -5.42±0.02 cm/s

Nc1ccc(O)c([N+](=O)[O-])c1 [4-Amino-2-nitrophenol]
log Kp [1, 7]: -5.91 cm/s
Papp at 4 h, 50 μM [2, 9]: 25.7 ×10⁻⁶ cm/s

C[C@]12CC[C@@H]3c4ccc(O)cc4CC[C@H]3[C@@H]1CC[C@@H]2O [Estradiol]
log Kp [1, 7]: -5.61 cm/s

CC(C(=O)O)c1ccc(-c2ccccc2)c(F)c1 (stereo not shown) [Flurbiprofen]
pKa [3]: 4.19 ^c
log Kp [1, 7]: -4.72 cm/s
log Po/w [4]: 4.16
Papp at 4 h, 50 μM [2, 10]: 204 ×10⁻⁶ cm/s
Papp at 30 min, 50 μM [2, 11]: 288 ×10⁻⁶ cm/s
Papp at 4 h, 50 μM [2, 12]: 141 ×10⁻⁶ cm/s
RM (membrane retention) [2, 13]: 0.18(±0.03)
RM (membrane retention) [2, 14]: 0.00
RM (membrane retention) [2, 15]: 0.00
RM (membrane retention) [2, 16]: 0.13(±0.02)
RM (membrane retention) [2, 17]: 0.00
RM (membrane retention) [2, 18]: 0.00
log Pe [2, 8]: -3.69±0.01 cm/s
log Pe [2, 19]: -2.98(±0.13) cm/s

CC(=O)CC(c1ccccc1)c1c(O)c2ccccc2oc1=O (stereo not shown) [warfarin]
change of skin-PAMPA log Pe after membrane treatment at basic pH [5]: slight increase at pH 9 and 10

CC(=O)[C@@]1(O)CC[C@H]2[C@@H]3CCC4=CC(=O)CC[C@]4(C)[C@H]3CC[C@@]21C [Hydroxyprogesterone]
log Kp [1, 7]: -6.30 cm/s
log Pe [2, 8]: -4.70±0.05 cm/s

c1ccc2cnccc2c1 [Isoquinoline]
log Kp [1, 7]: -5.11 cm/s
Papp at 4 h, 50 μM [2, 9]: 63.1 ×10⁻⁶ cm/s

CC(=O)OCC(=O)[C@@]12OC(C)(C)O[C@@H]1C[C@H]1[C@@H]3C[C@H](F)C4=CC(=O)C=C[C@]4(C)[C@@]3(F)[C@@H](O)C[C@@]12C [Fluocinonide]
Papp at 4 h, 50 μM [2, 9]: 4.17 ×10⁻⁶ cm/s

O=C(OCc1ccccc1)c1cccnc1 [Benzyl nicotinate]
log Kp [1, 7]: -4.87 cm/s
Papp at 4 h, 50 μM [2, 9]: 69.2 ×10⁻⁶ cm/s

C[C@H]1O[C@@H](O[C@H]2[C@@H](O)C[C@H](O[C@H]3[C@@H](O)C[C@H](O[C@H]4CC[C@@]5(C)[C@H](CC[C@@H]6[C@@H]5CC[C@]5(C)[C@@H](C7=CC(=O)OC7)CC[C@]65O)C4)O[C@@H]3C)O[C@@H]2C)C[C@H](O)[C@@H]1O [Digitoxin]
log Pe [6]: -6.34(±0.13) cm/s
log Kp [1, 7]: -8.15 cm/s
RM (membrane retention) [2, 13]: 0.00
RM (membrane retention) [2, 14]: 0.22(±0.04)
RM (membrane retention) [2, 15]: 0.29(±0.05)
RM (membrane retention) [2, 16]: 0.00
RM (membrane retention) [2, 17]: 0.09(±0.03)
RM (membrane retention) [2, 18]: 0.25(±0.02)

Cn1c(=O)c2c(ncn2C)n(C)c1=O [Caffeine]
log Kp [1, 7]: -6.85 cm/s

NC(=O)Cc1ccc(O)cc1 [4-Hydroxyphenylacetamide]
log Kp [1, 7]: -6.89 cm/s
Papp at 4 h, 50 μM [2, 9]: 0.851 ×10⁻⁶ cm/s

CC(C(=O)O)c1cccc(C(=O)c2ccccc2)c1 (stereo not shown) [Ketoprofen]
log Kp [1, 7]: -5.22 cm/s

O=C(O)Cc1ccccc1Nc1c(Cl)cccc1Cl [Diclofenac]
log Kp [1, 7]: -5.30 cm/s
Papp at 4 h, 50 μM [2, 9]: 162 ×10⁻⁶ cm/s

Cc1cccc(O)c1 [3-Methylphenol (m-Cresol), 3-Methylphenol]
log Kp [1, 7]: -4.89 cm/s
Papp (in vitro; [8]): 46.8 ×10⁻⁶ cm/s

CCC1(c2ccccc2)C(=O)NC(=O)NC1=O [5-Ethyl-5-phenylbarbituric acid]
log Kp ([1]; human): -6.68 cm/s
Papp (in vitro): 0.891 ×10⁻⁶ cm/s

C[C@]12CCC(=O)C=C1CC[C@@H]1[C@@H]2CC[C@@]2(C)[C@H]1CC[C@]2(O)C(=O)CO [Cortexolone]
log Kp [1, 7]: -7.20 cm/s
Papp at 4 h, 50 μM [2, 9]: 3.55 ×10⁻⁶ cm/s

Oc1ccc(Cl)cc1 [4-Chlorophenol]
log Kp [1, 7]: -4.52 cm/s

CC(=O)[C@H]1CC[C@H]2[C@@H]3CCC4=CC(=O)CC[C@]4(C)[C@H]3CC[C@]12C [Progesterone]
log Kp [1, 7]: -4.90 cm/s
Papp at 4 h, 50 μM [2, 10]: 77.6 ×10⁻⁶ cm/s
Papp at 24 h, 50 μM [2, 20]: 25.7 ×10⁻⁶ cm/s
Papp at 30 min, 50 μM [2, 11]: 15.5 ×10⁻⁶ cm/s
Papp at 4 h, 50 μM [2, 12]: 13.2 ×10⁻⁶ cm/s
Papp at 24 h, 50 μM [2, 21]: 20.4 ×10⁻⁶ cm/s
Papp at 4 h, 50 μM [2, 9]: 74.1 ×10⁻⁶ cm/s
RM (membrane retention) [2, 13]: 0.50(±0.04)
RM (membrane retention) [2, 14]: 0.74(±0.01)
RM (membrane retention) [2, 15]: 0.88(±0.01)
RM (membrane retention) [2, 16]: 0.33(±0.01)
RM (membrane retention) [2, 17]: 0.62(±0.04)
RM (membrane retention) [2, 18]: 0.83(±0.02)
RM (membrane retention) ([2]; range over all incubation times (30 min, 4 h, 24 h), with and without stirring): 0.33-0.88
log Pe [2, 19]: -3.25(±0.25) cm/s
log Pe [2, 22]: -4.88 cm/s

CC(C)Cc1ccc(C(C)C(=O)O)cc1 (stereo not shown) [Ibuprofen]
log Kp [1, 7]: -4.58 cm/s
Papp at 4 h, 50 μM [2, 10]: 245 ×10⁻⁶ cm/s
Papp at 30 min, 50 μM [2, 11]: 257 ×10⁻⁶ cm/s
Papp at 4 h, 50 μM [2, 12]: 224 ×10⁻⁶ cm/s
RM (membrane retention) [2, 13]: 0.22(±0.03)
RM (membrane retention) [2, 14]: 0.00
RM (membrane retention) [2, 15]: 0.00
RM (membrane retention) [2, 16]: 0.19(±0.07)
RM (membrane retention) [2, 17]: 0.09(±0.03)
RM (membrane retention) [2, 18]: 0.00
log Pe [2, 8]: -3.61±0.06 cm/s
log Pe [2, 19]: -2.71(±0.04) cm/s

Nc1ccccc1 [Aniline]
log Kp ([1]; human): -4.94 cm/s
Papp (in vitro): 28.2 ×10⁻⁶ cm/s

CCc1ccc(O)cc1 [4-Ethylphenol]
log Kp [1, 7]: -4.53 cm/s
Papp at 4 h, 50 μM [2, 9]: 64.6 ×10⁻⁶ cm/s

O=c1[nH]cc(F)c(=O)[nH]1 [5-Fluorouracil]
pKa [3]: 7.86 ^a
log Kp [1, 7]: -6.82 cm/s
log Po/w [4]: -0.89
Papp at 4 h, 50 μM [2, 10]: 1.7 ×10⁻⁶ cm/s
Papp at 24 h, 50 μM [2, 20]: 0.692 ×10⁻⁶ cm/s
Papp at 4 h, 50 μM [2, 12]: 0.339 ×10⁻⁶ cm/s
Papp at 24 h, 50 μM [2, 21]: 0.851 ×10⁻⁶ cm/s
RM (membrane retention) [2, 13]: 0.00
RM (membrane retention) [2, 14]: 0.04(±0.04)
RM (membrane retention) [2, 15]: 0.08(±0.03)
RM (membrane retention) [2, 16]: 0.00
RM (membrane retention) [2, 17]: 0.01(±0.03)
RM (membrane retention) [2, 18]: 0.05(±0.02)
log Pe [2, 8]: -5.77±0.02 cm/s
log Pe [2, 22]: -6.47 cm/s

COC1=CC(=O)C[C@@H](C)[C@]12Oc1c(Cl)c(OC)cc(OC)c1C2=O [Griseofulvin]
log Kp [1, 7]: -6.44 cm/s
change of skin-PAMPA log Pe after membrane treatment at basic pH [5]: slight increase at pH 9 and 10
log Po/w [4]: 2.18
Papp at 4 h, 50 μM [2, 10]: 5.62 ×10⁻⁶ cm/s
Papp at 24 h, 50 μM [2, 20]: 7.59 ×10⁻⁶ cm/s
Papp at 30 min, 50 μM [2, 11]: 2.24 ×10⁻⁶ cm/s
Papp at 4 h, 50 μM [2, 12]: 4.68 ×10⁻⁶ cm/s
Papp at 24 h, 50 μM [2, 21]: 6.31 ×10⁻⁶ cm/s
Papp at 4 h, 50 μM [2, 9]: 5.25 ×10⁻⁶ cm/s
RM (membrane retention) [2, 13]: 0.06(±0.01)
RM (membrane retention) [2, 14]: 0.19(±0.01)
RM (membrane retention) [2, 15]: 0.24(±0.02)
RM (membrane retention) [2, 16]: 0.03(±0.02)
RM (membrane retention) [2, 17]: 0.16(±0.01)
RM (membrane retention) [2, 18]: 0.20(±0.02)
log Pe [2, 19]: -5.61(±0.01) cm/s

COC(=O)c1ccc(O)cc1 [Methyl 4-hydroxybenzoate]
log Kp [1, 7]: -5.12 cm/s

COc1c2occc2cc2ccc(=O)oc12 [8-Methoxypsoralen]
Papp at 4 h, 50 μM [2, 9]: 50.1 ×10⁻⁶ cm/s

COc1ccccc1 [Methyl phenyl ether (Anisole), Methyl phenyl ether]
log Kp [1, 7]: -4.68 cm/s
Papp at 4 h, 50 μM [2, 9]: 45.7 ×10⁻⁶ cm/s

COc1ccc2c(c1)c(CC(=O)O)c(C)n2C(=O)c1ccc(Cl)cc1 [Indomethacine]
log Kp [1, 7]: -5.39 cm/s
change of skin-PAMPA log Pe after membrane treatment at basic pH [5]: remain constant
Papp at 4 h, 50 μM [2, 9]: 39.8 ×10⁻⁶ cm/s

Oc1ccc(O)cc1 [Hydroquinone]
log Kp [1, 7]: -6.31 cm/s
Papp at 4 h, 50 μM [2, 9]: 1.35 ×10⁻⁶ cm/s

COC(=O)Cc1ccc(O)cc1 [4-Hydroxy-methylphenylacetate]
log Kp [1, 7]: -5.26 cm/s
log Pe [2, 8]: -5.07±0.09 cm/s

Oc1ccccc1O [Catechol]
log Kp [1, 7]: -5.87 cm/s
Papp at 4 h, 50 μM [2, 9]: 4.07 ×10⁻⁶ cm/s

Oc1ccc(Cl)cc1Cl [2,4-Dichlorophenol]
log Kp [1, 7]: -4.30 cm/s
Papp at 4 h, 50 μM (in vitro): 120 ×10⁻⁶ cm/s

OCc1ccc(O)cc1 [4-Hydroxybenzyl alcohol]
log Kp [1, 7]: -6.26 cm/s
Papp at 4 h, 50 μM [2, 9]: 1.41 ×10⁻⁶ cm/s

CCC1(CC)C(=O)NC(=O)NC1=O [5,5-Diethylbarbituric acid (Barbital), 5,5-Diethylbarbituric acid]
log Kp ([1]; human): -7.29 cm/s
Papp (in vitro): 1.78 ×10⁻⁶ cm/s

O=[N+]([O-])c1ccc(O)cc1 [4-Nitrophenol]
log Kp [1, 7]: -5.33 cm/s
Papp (in vitro; [8]): 12.3 ×10⁻⁶ cm/s

Cc1ccc(C(C)C)c(O)c1 [2-Isopropyl-5-Methylphenol (Thymol), 2-Isopropyl-5-Methylphenol]
log Kp [1, 7]: -4.35 cm/s
Papp at 4 h, 50 μM [2, 9]: 97.7 ×10⁻⁶ cm/s

Cc1c(N(C)C)c(=O)n(-c2ccccc2)n1C [Aminopyrine]
pKa ([3]; aqueous): 5.00 ^b
log Kp [1, 7]: -6.55 cm/s

CN1C(C(=O)Nc2ccccn2)=C(O)c2ccccc2S1(=O)=O [Piroxicam]
log Kp [1, 7]: -6.02 cm/s
Papp at 4 h, 50 μM [2, 9]: 21.4 ×10⁻⁶ cm/s

Cc1ccccc1N [2-toluidine]
change of skin-PAMPA log Pe after membrane treatment at basic pH [5]: remain constant
